Source: patent US10352938B2, “Macrocyclic HOPO chelators” (LUMIPHORE, INC., priority 2009, dated 2019)
Like-named read-outs stand apart in the source and are kept apart here. Marks after values point to notes of the source that are not given here.

Tests used:
[1] = UV/visible absorption spectroscopy of Eu(III) complexes in TRIS buffer; type: physicochemical; settings: TRIS buffer pH = 7.4
Text: Extinction Coefficient. A series of solutions of varied concentrations will be prepared from the solids based on mass and purity. The absorbance of each of these solutions at both 340 nm and at the appropriate acceptor wavelength will be measured and plotted according to Beer's Law (A=εcL where A is absorbance, ε is the extinction coefficient in M^−1 cm^−1, c is concentration, and L is path length in cm) with the fitted linear regression slope equal to […] on a plot of A as a function of C.
Each of the spectra have absorption maxima around 335-340 nm (FIG. 2). Those bands are composed of two electronic transitions; at higher energy, a purely π-π* transition and, at slightly lower energy (around ca. 320 nm), a π-π* transition with some n-π* character, as evidenced previously from TD-DFT calculations. […] This interaction gives maxima blue-shifting from 341 nm for [Eu(H(2,2)-1,2-HOPO)]^0 to 334 nm for [Eu(H(17O5,2)-1,2-HOPO)]^0 (as low as 332 nm for)[Eu(5LIN^Me-1,2HOPO)2]^0).

[2] = Luminescence quantum yield, emission and brightness in aqueous 0.1 M TRIS buffer; type: physicochemical; settings: for øTot: 0.1M TRIS buffer pH = 7.4; for ϕTot: aqueous TRIS pH = 7.4, complexes with only one species; for Brightness: at maximum absorption, product of quantum yield and molar absorption coefficient, 0.1 M TRIS pH = 7.4
Description: Quantum Yield. Quantum yield will be measured using established methods. Fluorescence quantum yield Q are measured in diluted solution with an optical density lower than 0.1 using the following equation Qx/Qr=[Ar(λr)/Ax(λx)][nx^2/nr^2][Dx/Dr] were A is the absorbance at the excitation wavelength (λ), n the refractive index and D the integrated luminescence intensity. Subscripts “r” and “x” stand for reference and sample, respectively. References will be a quinine bisulfate in 1N sulfuric acid in aqueous solution (Qt=0.546)^1 and Ru(bpy)3 2C1 complexes in water solution (Qr=0.028)^2 for all complexes. A plot of integrated emission intensity (i.e. Dr) versus absorbance (i.e. Ar(λr)) yields a linear plot with a slope which can be equated to the reference quantum yield Qr. By analogy, for the unknown sample, a plot of integrated emission intensity (i.e. Dx) versus absorbance (i.e. Ax(λx)) yields a linear plot and Qx can then be evaluated. A minimum of at least two independent measurements will be averaged to derive a reliable value.

[3] = Triplet excited state energy from phosphorescence of Gd complexes at 77K; type: physicochemical; settings: solid matrix (methanol/ethanol 1/4), using the Gd complexes
Description: Estimation of the energies of the ligand based triplet excited state were determined using the Gd(III) complexes. Gadolinium was chosen because it is a 4f^7 lanthanide cation having a similar 4f electronic configuration and size as the europium cation (4f^6), but lacking an accessible metal based low energy electronic excited state. At room temperature, only a broad weak emission centered between 380-400 nm can be seen for the Gd(III) complexes. […] At 77K, in solid matrix, an emission band at approx. 500 nm can be seen (FIG. 8). This emission, red-shifted compared to the singlet excited state, can be assigned to phosphorescence from the triplet excited state, lower in energy than the singlet excited state observed at room temperature. Selective time gated phosphorescence spectra (delay 0.1 ms) of the gadolinium complexes at 77K are depicted in FIG. 8.

[4] = Calculation of Eu luminescence parameters (radiative lifetime, rate constants, efficiencies); type: physicochemical; settings: for η^Eu: efficiency of metal centred luminescence; for knr: non-radiative rate constant; for τrad: pure radiative luminescence lifetime, aqueous TRIS pH = 7.4; for kr: radiative rate constant; for η^sens: sensitization efficiency
Description: In this equation, the ηISC ηET term is termed the sensitization efficiency, ηsens (ηsens=ηISC ηET). All the luminescence parameters τR (the pure radiative luminescence lifetime), kR and knR (the radiative and non-radiative constant rate) can be deduced. These parameters were calculated for five of the octadentate complexes and the model complex that present only one species in solution at pH=7.4 and are reported in Table 6.

[5] = cited from earlier work; for λ: absorption maximum
[6] = cited from earlier work; for ϕEu: quantum yield
[7] = cited from earlier work; for τ (D2O): first component where two are printed; for τ (H2O): first (longer) component
[8] = cited from earlier work
[9] = Luminescence lifetimes (TRIS buffer, deuterated water, 77K) and inner sphere water number q; settings: for τ: aqueous TRIS pH = 7.4; for τ^D: deuterated solution; for τ^D / τ (77K): first component; for q: inner sphere water molecules, improved Horrock's equations, first species; for τ (77K): solid matrix at 77K (methanol/ethanol 1/4)
Description: Fluorescent decay signals can be acquired using an IBH DataStation Hub photon counting module and data analysis performed using the commercially available DAS 6 decay analysis software package from HORIBA Jobin Yvon IBH. Goodness of fit will be assessed by minimizing the reduced chi squared function, χ2, and a visual inspection of the weighted residuals. Each trace will use at least 10,000 points and the reported lifetime values result from at least three independent measurements.
In addition to the steady state emission spectra, the luminescence quantum yields and luminescence lifetimes of the Eu(III) complexes were also measured in aqueous solution with 0.1 M TRIS buffer pH=7.4 and in deuterated solution to estimate the number of inner sphere water molecule (i.e. q) using the improved Horrock's equations.
Luminescence lifetimes were also determined at 77K, in a solid matrix (Table 5), which have allowed us to determine whether back energy transfer between the donor triplet excited state and the acceptor manifold excited state of the lanthanide is present, or alternately whether quenching via low lying LMCT state occurs.

[10] = listed as [Eu(5LIN^Me-1,2HOPO)2]^0
[11] = listed as [Eu(5LIN^Me-1,2-HOPO)2]
[12] = number of inner sphere water molecules, first species
[13] = competitive batch titration using DTPA in 0.1M TRIS pH = 7.4 and 0.1M KCl
[14] = listed as [Eu(H(2,2)-1,2-HOPO)]^0
[15] = listed as [Eu(H(2,2)-1,2HOPO)]^0

For `O=C(NCCN(CCCCN(CCNC(=O)c1cccc(=O)n1O)CCNC(=O)c1cccc(=O)n1O)CCNC(=O)c1cccc(=O)n1O)c1cccc(=O)n1O` [Eu(5LiN^Me), reference compound], the ε [1, 10] was 18,050 M^−1 · cm^−1, the “λ^maxabs” value [1, 10] was 332 nm and the øTot [2, 10] was 0.173^b. For the same molecule, the ϕTot [2, 11] was 0.173, the Brightness ([2]; listed as [Eu(5LIN^Me-1,2-HOPO)2]^0) was 3400 M⁻¹ cm⁻¹ and the Brightness [2, 10] was 3120 M⁻¹ cm⁻¹. The “T0-0 (triplet excited state energy)” value [3, 10] was 22,010 cm^−1, the “η^Eu” value [4, 11] was 0.412 and the knr [4, 11] was 807 s⁻¹. For the same molecule, the τrad [4, 11] was 1770 μs, the kr [4, 11] was 566 s⁻¹ and the “η^sens” value [4, 11] was 0.420. The λ [5] was 332 nm, the λ ([5]; see reference [47]) was 332 nm and the ε ([5]; extinction coefficient) was 18,750 M^1 cm^−1. The ε ([5]; see reference [47], in M-1·cm-1 (unit assumed)) was 18,750, the ϕEu [6] was 0.17 and the ϕTot ([6]; see reference [47]) was 0.17. For the same molecule, the “τ (D2O)” value [7] was 1000 μs, the “τ (H2O)” value [7] was 728 μs and the q [7, 12] was 0.1. For the same molecule, the q ([7]; see reference [47]) was 0.1, the τ ([7]; see reference [47]) was 728 μs and the “τ^D” value ([7]; see reference [47]) was 1000 μs. For the same molecule, the pEu [8, 13] was 17.3, the pEu ([8]; see reference [47], DTPA competition, 0.1M TRIS pH = 7.4, 0.1M KCl) was 17.3 and the τ [9, 11] was 728 μs. The “τ^D” value [9, 10] was 1000^b μs, the q [9, 10] was 0.1^b and the “τ (77K)” value [9, 10] was 860 μs.
For `O=C(NCCN(CCCCN(CCNC(=O)c1cccc(=O)n1O)CCNC(=O)c1cccc(=O)n1O)CCNC(=O)c1cccc(=O)n1O)c1cccc(=O)n1O` [Eu(H2)], the “λ^maxabs” value [1, 14] was 341 nm, the ε [1, 15] was 18,200 M^−1 · cm^−1 and the “λ^maxabs” value [1, 15] was 341 nm. For the same molecule, the øTot [2, 15] was 0.036, the ϕTot ([2]; listed as [Eu(H(22)-1,2-HOPO)]) was 0.036 and the Brightness [2, 14] was 655 M⁻¹ cm⁻¹. For the same molecule, the Brightness [2, 15] was 655 M⁻¹ cm⁻¹, the “overall quantum yield (in words)” value ([2]; related to inner-sphere coordinated water) was “low quantum yields” and the “T0-0 (triplet excited state energy)” value [3, 15] was 21,980 cm^−1. For the same molecule, the “η^Eu” value ([4]; listed as [Eu(H(22)-1,2-HOPO)]) was 0.160, the knr ([4]; listed as [Eu(H(22)-1,2-HOPO)]) was 1750 s⁻¹ and the τrad ([4]; listed as [Eu(H(22)-1,2-HOPO)]) was 3000 μs. For the same molecule, the kr ([4]; listed as [Eu(H(22)-1,2-HOPO)]) was 333 s⁻¹, the “η^sens” value ([4]; listed as [Eu(H(22)-1,2-HOPO)]) was 0.225 and the λ [5] was 341 nm. For the same molecule, the ε ([5]; extinction coefficient) was 18,200 M^1 cm^−1, the ϕEu [6] was 0.036 and the “τ (D2O)” value [7] was 1222 μs. For the same molecule, the “τ (H2O)” value [7] was 480 μs, the q [7, 12] was 1.1 and the pEu [8, 13] was 21.2. For the same molecule, the τ ([9]; listed as [Eu(H(22)-1,2-HOPO)]) was 480 μs, the “τ^D” value [9, 15] was 1222 μs and the q [9, 15] was 1.1. For the same molecule, the “τ (77K)” value [9, 15] was 914 μs.
